Legend:
LPA1 = LPA1 (Homo sapiens, UniProt Q92633); test: cell-based; conditions: maximum blockade of activation induced by 10 μM LPA (18:1) at 10 μM compound; N.E. = no effect at 10 μM
Experimental: (§1) Cells stably expressing the corresponding LPA1–3 receptor were grown as described previously.[18] Changes in intracellular calcium levels were measured by using the fluorescent calcium sensitive dye Fluo-4 NW (Invitrogen). RH7777 cells or B103 cells were plated on poly-D-lysine or collagen coated, respectively, black-wall clear-bottom 96-well plates (Corning) at a density of 50 000 cells/well and cultured overnight. The culture medium was then replaced with 100 μL of Fluo-4 NW dye loading solution containing 2.5 μM of probenecid and incubated for 30 min at 37 °C followed by an additional 30 min at rt. […] Fluorescence changes were registered in a FluoStar Optima instrument (BMG Labtech) at 525 nm using an excitation wavelength of 494 nm. […] The data presented are from two to four independent experiments carried out in triplicate or quadruplicate. Dose–response curves were generated and IC50 values calculated by nonlinear regression analysis using Prism software version 5 (GraphPad Software Inc., San Diego, CA, USA).

LPA3 = target: T1, LPA3 (Homo sapiens, UniProt Q9UBY5); test: cell-based; conditions: maximum blockade of activation induced by 10 μM LPA (18:1) at 10 μM compound; N.E. = no effect at 10 μM
T1 sequence (Q9UBY5 1-353): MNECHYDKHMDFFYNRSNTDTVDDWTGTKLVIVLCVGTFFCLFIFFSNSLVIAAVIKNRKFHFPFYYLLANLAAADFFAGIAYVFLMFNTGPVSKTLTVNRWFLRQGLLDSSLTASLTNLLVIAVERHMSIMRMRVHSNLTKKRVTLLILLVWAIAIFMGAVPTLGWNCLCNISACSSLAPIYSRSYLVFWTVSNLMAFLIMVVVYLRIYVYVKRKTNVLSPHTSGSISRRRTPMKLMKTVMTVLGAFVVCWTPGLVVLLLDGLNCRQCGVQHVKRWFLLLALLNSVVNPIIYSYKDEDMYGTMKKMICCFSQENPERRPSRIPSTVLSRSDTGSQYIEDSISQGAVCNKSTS
Experimental: as §1

LPA2 = target: T2, LPA2 (Homo sapiens, UniProt Q9HBW0); test: Ca2+ mobilization assay, agonist activity at LPA2; type: cell-based; conditions: 10 μM compound
T2 construct: expressed in transfected cells
T2 sequence (Q9HBW0 whole entry, species assumed): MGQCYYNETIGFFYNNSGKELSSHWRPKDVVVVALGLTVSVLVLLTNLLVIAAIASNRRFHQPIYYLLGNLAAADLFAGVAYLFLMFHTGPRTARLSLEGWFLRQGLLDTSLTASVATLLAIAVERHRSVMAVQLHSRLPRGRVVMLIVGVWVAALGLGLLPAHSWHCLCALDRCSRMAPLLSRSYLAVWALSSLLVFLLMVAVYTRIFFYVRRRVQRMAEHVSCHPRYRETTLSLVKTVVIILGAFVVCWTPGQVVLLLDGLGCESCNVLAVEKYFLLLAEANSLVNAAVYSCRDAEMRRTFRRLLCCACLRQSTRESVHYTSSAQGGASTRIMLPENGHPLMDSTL
Experimental: The agonist activity at LPA2 receptors was determined at 10 μM concentration for all final compounds as previously described.[18]
Figure S1. Representative snapshots showing the lack of significant agonist activity of selected compounds. (A) 1; (B) 13; (C) 54; and (D) Ki16425. (E) Graphs show the agonist activity induced […]
stably expressing LPA2 receptor were plated on collagen-coated black-wall clear-bottom 96-well plates (Corning) at a density of 50000 cells/well and cultured overnight. The culture medium was then replaced with Fluo-4 NW dye loading solution containing 2.5 µM of probenecid and incubated […]
for 30 minutes at 37 °C followed by an additional 30 minutes at rt. Fluorescence changes were registered in a FluoStar Optima instrument (BMG Labtech) at 525 nm using an excitation wavelength of 494 nm. Each well was monitored for 240 s. 20 µL of the test compound from a 6x stock solution in assay buffer were added after 120 s of starting the measurement. Ca2+ transient increase was quantified by calculating the difference between maximum and baseline values for each […]
Graphs shown are representative of two to three independent experiments.

LPA2 mutant R107A = target: T3, LPA2 mutant R107A (Homo sapiens, UniProt Q9HBW0, R104A); test: Ca2+ mobilization in McA-RH7777 cells transfected with LPA2 point mutant R107A; type: cell-based; conditions: 54 at 10 μM, 10 μM LPA
T3 construct: host or cells: McA-RH7777 (CRL-1601, ATCC), transient, pcDNA3.1
T3 sequence (Q9HBW0 whole entry R104A): as the sequence (Q9HBW0 whole entry, species assumed) above, with R104A counted along it

[1] = Parallel artificial membrane permeability assay (PAMPA); type: in vitro ADME; conditions: pH 7.4, PAMPA, PBS pH 7.4, 5 h, rt, read-out: P (cm/s), permeability value
Experimental: These studies were carried out as previously described with minor modifications.[41],[42] The assessment of the membrane permeability of synthesized compounds and propranolol and metoprolol as reference compounds was performed in a commercially available 96-well Corning Gentest precoated PAMPA plate system (Cultek S.L.U., Spain). Prior to use, the precoated PAMPA plate system was warmed to rt for 30 min and 300 μL of 200 μM solution of tested compound in 2% DMSO in PBS (pH 7.4) were added into wells in the receiver (donor) plate. Then, 200 μL of PBS were added into wells in the filter (acceptor) plate. The filter plate was placed on the receiver plate by slowly lowering the precoated PAMPA plate until it sits on the receiver plate. The assembly was incubated at rt for 5 h, and then buffer samples were collected carefully from each plate. The final concentrations of compound in both donor and acceptor wells were analyzed by HPLC-MS and quantification was estimated by using the peak area integration normalized with an internal standard. Permeability value of the compounds was calculated using the following formula: P (cm/s) = {−ln[1 – CA(t)/Ceq]}/[A(1/VD + 1/VA)t], where A = filter area (0.3 cm^2), VD = donor well volume (0.3 mL), VA = acceptor well volume (0.2 mL), t = incubation time (s), CA(t) = compound concentration (μM) in the acceptor well at time t, CD(t) = compound concentration (μM) in donor well at time t, and Ceq = [CD(t)VD + CA(t)VA]/(VD + VA). Assays were performed in duplicate, and the compound was tested in two different plates on different days.

[2] = Metabolic stability in human liver microsomes; type: in vitro ADME; conditions: male, liver microsomes (pooled), 1 mg/mL protein, NADPH, 37 °C, read-out: stability (t1/2, min) HLMs
Experimental: Reactions were initiated by the addition of a suspension of mouse liver microsomes (MLMs) (male CD-1 mice pooled, Sigma-Aldrich) or human liver microsomes (HLMs) (male human pooled, Sigma-Aldrich), respectively, at a final protein concentration of 1 mg/mL. […] Aliquots of 100 μL were quenched at time zero and at seven points ranging to 2 h (MLM) or 4 h (HLM) by pouring into 100 μL of ice-cold acetonitrile. […] The relative disappearance of the compound under study over the course of the incubation was monitored by HPLC-MS using SIM mode. Concentrations were quantified by measuring the area under the peak ([M + H]^+) normalized with an internal standard and converted to the percentage of compound remaining, using the time zero peak area value as 100%. The natural logarithm of the remaining percentage versus time data for each compound was fit to a linear regression, and the slope was used to calculate the degradation half-life (t1/2).

[3] = system: spinal cord injury in C57Bl/6J mice; test: Spinal cord contusion injury model, locomotor recovery (Basso Mouse Scale); type: in vivo; conditions: C57Bl/6 mice
Experimental: BMS is the gold standard test used for locomotor scoring after SCI in which two blinder observers score the mouse motor performance based on a nine-point scale.[28]
Adult female C57Bl/6J mice (10–12 weeks old) and LPA2 null mice were anesthetized by intramuscular injection with a mixture of ketamine and xylazine (90:10 mg/kg). A laminectomy was performed at the 11th thoracic vertebrae and the exposed spinal cord was contused using the Infinite Horizon Impactor device (Precision Scientific Instrumentation) using a force of 60 kdynes. Only mice showing a spinal cord tissue displacement ranging between 450 and 550 μm were selected.

[4] = In vivo levels of compound in plasma, spinal cord and brain (HPLC-MS); conditions: 25 mg/kg i.p.
Experimental: At 1, 2, and 4 h after drug administration (n = 3 for each time and sample), mice were sacrificed and their brains, spinal cords, and blood were obtained. The brain and spinal cord were immediately frozen and kept at −80 °C until analysis. Blood was allowed to clot at rt for 30 min and centrifuged at 4 °C for 10 min at 16 000g. Serum was transferred to a clean polypropylene tube and stored at −80 °C until analysis. For analysis, a volume of cold acetonitrile was added to the serum. The sample was incubated in an ice bath for 10 min and centrifuged at 4 °C for 10 min at 16 000g. The resulting organic layer was filtered through a PTFE filter (0.2 μm, 13 mm diameter, Fisher Scientific) and 20 μL of the sample analyzed by LC-MS/MS at the UCM’s Mass Spectrometry CAI. Separation was performed using a Phenomenex Gemini 5 μm C18 110A 150 × 2 mm column (run time 8 min; flow 0.5 mL/min; gradient: 0.5 min 10% Phase B, 2 min 60% Phase B, 4.5–6 min 100% Phase B, 7–8 min 10% Phase B; Phase A: water with formic acid 0.1%; Phase B: acetonitrile). […] The mass spectrometer ion optics were set in the multiple reaction monitoring mode and the transition selected for quantification was 432.90 > 215.10 (CE: −30 V).

Sequence of LPA1 (Q92633 whole entry, species assumed): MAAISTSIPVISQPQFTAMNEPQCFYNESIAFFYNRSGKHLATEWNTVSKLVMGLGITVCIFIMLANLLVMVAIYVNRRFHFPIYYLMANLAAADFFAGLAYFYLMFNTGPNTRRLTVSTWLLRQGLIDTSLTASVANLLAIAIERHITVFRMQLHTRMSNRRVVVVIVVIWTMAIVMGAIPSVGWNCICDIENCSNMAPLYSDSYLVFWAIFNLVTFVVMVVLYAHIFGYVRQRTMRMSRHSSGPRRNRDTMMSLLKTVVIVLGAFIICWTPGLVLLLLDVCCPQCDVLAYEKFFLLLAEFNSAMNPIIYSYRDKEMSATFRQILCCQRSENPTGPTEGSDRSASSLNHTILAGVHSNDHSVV

Cc1[nH]nc(-c2ccc(OCc3nnn[nH]3)cc2O)c1Oc1ccc(Cl)cc1Cl [Compound 54]
Emax (%) LPA1 (LPA1): inactive and N.E. | Emax (%) LPA3 (LPA3): inactive and N.E. | agonist activity at LPA2 receptor (LPA2): lack | agonist/antagonist activity at LPA2 R107A mutant (LPA2 mutant R107A): no significant agonist nor antagonist activity | Papp at 5 h, 200 μM [1]: 6.1 ×10⁻⁶ cm/s | half-life at 5 μM [2]: 97 ± 15 min | BMS score ([3]; 25 mg/kg i.p. daily for 10 days from 1 h after lesion, day 50 postinjury, scale 0-9): 4.1 ± 0.3 | locomotor recovery after SCI (BMS) ([3]; 25 mg/kg i.p. daily for 10 days, significant from day 35 postinjury onward): significant improvement in locomotor recovery after SCI | time of maximum levels in spinal cord and brain [4]: one hour postadministration
